Tests used:
[1] = Microsomal half-life / microsomal clearance, human liver microsomes; format: in vitro ADME; conditions: 0.5 μM test substance, 0.25 mg protein/ml, pH 7.4, 37° C.
Experimental: (§1) The metabolic stability of the compounds of the invention was determined in the following assay. The test substances were incubated in a concentration of 0.5 μM as follows: 0.5 μM test substance are preincubated together with liver microsomes from different species (from rat, human or other species) (0.25 mg of microsomal protein/ml) in 0.05 M potassium phosphate buffer of pH 7.4 in microtiter plates at 37° C. for 5 min. The reaction is started by adding NADPH (1 mg/mL). After 0, 5, 10, 15, 20 and 30 min, 50 μl aliquots are removed, and the reaction is immediately stopped and cooled with the same volume of acetonitrile. The samples are frozen until analyzed. The remaining concentration of undegraded test substance is determined by MSMS. The half-life (T½) is determined from the gradient of the signal of test substance/unit time plot, it being possible to calculate the half-life of the test substance, assuming first order kinetics, from the decrease in the concentration of the compound with time. The microsomal clearance (mCl) is calculated from mCl=ln 2/T½/(content of microsomal protein in mg/ml)×1000 [ml/min/mg] (modified from references: Di, The Society for Bimolecular Screening, 2003, 453-462; Obach, D M D, 1999 vol 27. N 11, 1350-1359).

[2] = Microsomal half-life / microsomal clearance, rat liver microsomes; format: in vitro ADME; conditions: 0.5 μM test substance, 0.25 mg protein/ml, pH 7.4, 37° C.
Experimental: as §1

[3] = system: rats; conditions: cited from earlier work
[4] = system: rats; conditions: cited from earlier work; remark: listed apart in the source
[5] = system: rats; conditions: cited from earlier work; remark: listed apart in the source

| Compound | Human mCl [1] | Rat mCl [2] | hyperactivity induced by PCP [3] | effect on the cataleptic effect of haloperidol ([4]; with D2 receptor antagonist haloperidol) | catalepsy on its own ([4]; without haloperidol) | reduction of amphetamine-induced hyperactivity [5] |
| --- | --- | --- | --- | --- | --- | --- |
| Cc1ccc(-c2nc(C)c3c(C)nc4scnc4n23)cn1 [Example 11, 5,6-Dimethyl-8-(6-methyl-pyridin-3-yl)-3-thia-1,4,7,8a-tetraaza-as-indacene] | + (+: 100-220 μl min^−1 mg^−1) | + (+: 100-220 μl min^−1 mg^−1) | – | – | – | – |
| CCCc1nc(C)c2c(C)nc3sc(OC)nc3n12 [Example 5, 2-Methoxy-5,6-dimethyl-8-propyl-3-thia-1,4,7,8a-tetraaza-as-indacene] | ∘ (∘: >220 μl min^−1 mg^−1) | ∘ (∘: >220 μl min^−1 mg^−1) | – | – | – | – |
| Cc1ncccc1-c1nc(C)c2c(C)nc3scnc3n12 [Example 9, 5,6-Dimethyl-8-(2-methyl-pyridin-3-yl)-3-thia-1,4,7,8a-tetraaza-as-indacene] | ++ (++: <100 μl min^−1 mg^−1) | ++ (++: <100 μl min^−1 mg^−1) | – | – | – | – |
| CCCc1nc(C)c2c(C)nc3scnc3n12 [Example 1, 5,6-Dimethyl-8-propyl-3-thia-1,4,7,8a-tetraaza-as-indacene] | ++ (++: <100 μl min^−1 mg^−1) | + (+: 100-220 μl min^−1 mg^−1) | – | – | – | – |
| CCCc1nc(C)c2c(C)nc3sc(C)nc3n12 [Example 3, 2,5,6-Trimethyl-8-propyl-3-thia-1,4,7,8a-tetraaza-as-indacene] | + (+: 100-220 μl min^−1 mg^−1) | ∘ (∘: >220 μl min^−1 mg^−1) | – | – | – | – |
| COc1ccc(Cc2nccc3cc(OC)c(OC)cc23)cc1OC [Papaverine, papaverine] | – | – | reduced hyperactivity | potentiated the cataleptic effect | did not cause catalepsy | insignificant |
| Cc1nc(-c2cccc(C(N)=O)c2)n2c1c(C)nc1scnc12 [Example 8, 3-(5,6-Dimethyl-3-thia-1,4,7,8a-tetraaza-as-indacen-8-yl)-benzamide] | ++ (++: <100 μl min^−1 mg^−1) | ++ (++: <100 μl min^−1 mg^−1) | – | – | – | – |

From US9388180B2, “Inhibitor compounds of phosphodiesterase type 10A” (priority 2012, dated 2016)
